The values below come from patent US8975277B2, “2,3-dihydrofuro[2,3-c]pyridin-2-ylpiperidine derivatives” (Boehringer Ingelheim International GmbH, priority 2012, dated 2015).

This assay concerns the target T1, human GPR119 (Homo sapiens, UniProt Q8TDV5).
T1 construct: expression vector for human GPR119 cDNA (Acc. No. NP_848566); expressed in transfected cells
T1 sequence (Q8TDV5 1-335): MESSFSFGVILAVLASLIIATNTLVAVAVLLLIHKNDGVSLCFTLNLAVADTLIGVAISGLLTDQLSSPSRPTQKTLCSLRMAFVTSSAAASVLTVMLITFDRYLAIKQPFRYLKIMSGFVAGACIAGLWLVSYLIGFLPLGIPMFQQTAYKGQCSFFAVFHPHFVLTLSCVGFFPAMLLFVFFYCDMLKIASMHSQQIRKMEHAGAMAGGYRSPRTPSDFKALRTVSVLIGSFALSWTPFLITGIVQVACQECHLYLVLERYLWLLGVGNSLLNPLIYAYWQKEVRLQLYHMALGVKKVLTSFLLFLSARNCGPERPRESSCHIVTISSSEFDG
Description: AlphaScreen cAMP assay, activation of GPR119 in MIN6 cells stably transfected with human GPR119. As to conditions: Min-6/hGPR119 cells, intracellular cAMP, 45 minutes incubation at room temperature. In kind it is cell-based. How it is done:
The compounds of the invention modulate the activity of the G-protein-coupled receptor GPR119. The effect of the compounds on the activation of GPR119 and on the stimulation of intracellular cAMP concentration is determined using the AlphaScreen cAMP Assay Kit (Cat.No.#6760625R) made by Perkin Elmer.
MIN6 cells [Miyazaki J et al., Endocrinology. 1990 July; 127(1):126-32] are stably transfected with an expression vector for human GPR119 cDNA (Acc. No. NP_848566). Min-6/hGPR119 cells are cultured in DMEM, 10% FBS, 50 μM β-mercaptoethanol, 0.3 mg/mL Geniticin, 2 mM GlutaMAX at 37° C., 5% CO2. For the assay, the cells are seeded in Optiplates (white, 384-well, 160W-barcoded, TC, sterile with lid, Cat.No.#6007688 (Perkin Elmer); 10000 cells/well; 50 μL). The plates covered with lids are then incubated for 24 hours at 37° C., 5% CO2. After the medium is aspirated from the wells completely, 10 μl of the test compound are added, the compounds are diluted using stimulating buffer (140 mM NaCl, 3.6 mM KCl, 0.5 mM NaH2PO4, 0.5 mM MgSO4, 1.5 mM CaCl2, 10 mM Hepes, 5 mM NaHCO3; pH 7.4. 0.5 mM IBMX and 0.1% BSA, the final DMSO concentration is 1%). After 45 minutes incubation at room temperature (approx. 20° C.), the cAMP concentrations are determined using the AlphaScreen cAMP Assay Kit (Cat.No.#6760625R from PerkinElmer).
(In general: Alpha assays give light when donor and acceptor beads are brought close together.)
In general, EC50 refers to the concentration giving half of the maximal effect. A low value points to a more potent agent. Regarding `C[C@H](OC(=O)N1CCC([C@H]2Cc3cc(C4=CCN(S(C)(=O)=O)CC4)ncc3O2)CC1)C(F)(F)F` [Example 4, (S)-4-[(R)-5-(1-Methanesulfonyl-1,2,3,6-tetrahydro-pyridin-4-yl)-2,3-dihydro-furo[2,3-c]pyridin-2-yl]-piperidine-1-carboxylic acid 2,2,2-trifluoro-1-methyl-ethyl ester], the EC50 was found to be 5 nM. As for `C[C@H](OC(=O)N1CCC([C@@]2(C)Cc3cc(C4=CCN(S(C)(=O)=O)CC4)ncc3O2)CC1)C(F)(F)F` [Example 7, (S)-4-[(R)-5-(1-Methanesulfonyl-1,2,3,6-tetrahydro-pyridin-4-yl)-2-methyl-2,3-dihydro-furo[2,3-c]pyridin-2-yl]-piperidine-1-carboxylic acid 2,2,2-trifluoro-1-methyl-ethyl ester], the midpoint of the response, the EC50, lay at 3 nM. Regarding `C[C@H](OC(=O)N1CCC([C@@]2(C)Cc3cc(-c4ccc(S(C)(=O)=O)cc4)ncc3O2)CC1)C(F)(F)F` [Example 9, (S)-4-[(R)-5-(4-Methanesulfonyl-phenyl)-2-methyl-2,3-dihydro-furo[2,3-c]pyridin-2-yl]-piperidine-1-carboxylic acid 2,2,2-trifluoro-1-methyl-ethyl ester], the EC50 was 1 nM. `C[C@H](OC(=O)N1CCC([C@]2(C)Cc3cc(C4=CCN(S(C)(=O)=O)CC4)ncc3O2)CC1)C(F)(F)F` [Example 5, (S)-4-[(S)-5-(1-Methanesulfonyl-1,2,3,6-tetrahydro-pyridin-4-yl)-2-methyl-2,3-dihydro-furo[2,3-c]pyridin-2-yl]-piperidine-1-carboxylic acid 2,2,2-trifluoro-1-methyl-ethyl ester]: the EC50 was 109 nM. Compound `C[C@@H](OC(=O)N1CCC([C@@]2(C)Cc3cc(C4=CCN(S(C)(=O)=O)CC4)ncc3O2)CC1)C(F)(F)F` [Example 6, (R)-4-[(R)-5-(1-Methanesulfonyl-1,2,3,6-tetrahydro-pyridin-4-yl)-2-methyl-2,3-dihydro-furo[2,3-c]pyridin-2-yl]-piperidine-1-carboxylic acid 2,2,2-trifluoro-1-methyl-ethyl ester] registered an EC50 of 7 nM.

Compound `C[C@@H](OC(=O)N1CCC([C@@]2(C)Cc3cc(-c4ccc(S(C)(=O)=O)cc4)ncc3O2)CC1)C(F)(F)F` [Example 8, (R)-4-[(R)-5-(4-Methanesulfonyl-phenyl)-2-methyl-2,3-dihydro-furo[2,3-c]pyridin-2-yl]-piperidine-1-carboxylic acid 2,2,2-trifluoro-1-methyl-ethyl ester] showed an EC50 of 4 nM. Compound `C[C@H](OC(=O)N1CCC([C@H]2Cc3cc(-c4ccc(S(C)(=O)=O)cc4)ncc3O2)CC1)C(F)(F)F` [Example 1, (S)-4-[(R)-5-(4-Methanesulfonyl-phenyl)-2,3-dihydro-furo[2,3-c]pyridin-2-yl]-piperidine-1-carboxylic acid 2,2,2-trifluoro-1-methyl-ethyl ester] showed an EC50 of 5 nM. As for `C[C@@H](OC(=O)N1CCC([C@H]2Cc3cc(C4=CCN(S(C)(=O)=O)CC4)ncc3O2)CC1)C(F)(F)F` [Example 3, (R)-4-[(R)-5-(1-Methanesulfonyl-1,2,3,6-tetrahydro-pyridin-4-yl)-2,3-dihydro-furo[2,3-c]pyridin-2-yl]-piperidine-1-carboxylic acid 2,2,2-trifluoro-1-methyl-ethyl ester], the figure is 6 nM; as for `C[C@@H](OC(=O)N1CCC([C@H]2Cc3cc(-c4ccc(S(C)(=O)=O)cc4)ncc3O2)CC1)C(F)(F)F` [Example 2, (R)-4-[(R)-5-(4-Methanesulfonyl-phenyl)-2,3-dihydro-furo[2,3-c]pyridin-2-yl]-piperidine-1-carboxylic acid 2,2,2-trifluoro-1-methyl-ethyl ester], 6 nM.
